Data: ChEMBL document CHEMBL1201862, “PubChem BioAssay data set” (2004)
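Method: 48-hour compound exposure of cells in 96-well plates, five concentrations, linear interpolation of endpoints. Abbreviation: GI50, concentration required for 50% inhibition of growth.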 Activity calls are given as the source filed them. Cut-off read from the data, not from the text of the source: active = GI50 up to about 1.1 µM and inactive = higher.

What was measured:
Experiment in all cases: NCI tumour cell line growth inhibition, 48 h
OVCAR-8 = test system: OVCAR-8
OVCAR-3 = test system: OVCAR-3
EKVX = test system: EKVX
Malme-3M = test system: Malme-3M
SN12C = test system: SN12C
NCI-H522 = test system: NCI-H522
SK-MEL-2 = test system: SK-MEL-2
SR = test system: SR
UACC-257 = test system: UACC-257
HOP-92 = test system: HOP-92
A498 = test system: A498
HL-60 = test system: HL-60
SF-268 = test system: SF-268
LOX IMVI = test system: LOX IMVI
HCC 2998 = test system: HCC 2998
TK-10 = test system: TK-10
CCRF-CEM = test system: CCRF-CEM
MDA-N = test system: MDA-N
A549 = test system: A549
SF-539 = test system: SF-539

Row | SMILES | GI50 (OVCAR-8) | GI50 (OVCAR-3) | GI50 (EKVX) | GI50 (Malme-3M) | GI50 (SN12C) | GI50 (NCI-H522) | GI50 (SK-MEL-2) | GI50 (SR) | GI50 (UACC-257) | GI50 (HOP-92) | GI50 (A498) | GI50 (HL-60) | GI50 (SF-268) | GI50 (LOX IMVI) | GI50 (HCC 2998) | GI50 (TK-10) | GI50 (CCRF-CEM) | GI50 (MDA-N) | GI50 (A549) | GI50 (SF-539)
1 | Cc1coc2c1C(=O)C(=O)c1c-2ccc2c1CCCC2(C)C [TANSHINONE IIA] | 6.35 µM (inactive) | 0.303 µM (active) | 30.3 µM (inactive) | 0.508 µM (active) | 3.7 µM (inactive) | 1.54 µM (inactive) | 2.28 µM (inactive) | 0.757 µM (active) | 0.771 µM (active) | > 70.5 µM (inactive) | 7.74 µM (inactive) | 1.07 µM (active) | 3.53 µM (inactive) | 0.342 µM (active) | 4.06 µM (inactive) | 21.6 µM (inactive) | 7.52 µM (inactive) | 1.37 µM (inactive) | 1.48 µM (inactive) | 2.42 µM (inactive)
2 | Cc1cc2c(cc1C)[n+]([O-])c(C(=O)/C=C/c1ccccc1[N+](=O)[O-])c(C)[n+]2[O-] | 61.5 µM (inactive) | 50.7 µM (inactive) | 58.2 µM (inactive) | 57 µM (inactive) | 69 µM (inactive) | 28.6 µM (inactive) | 41 µM (inactive) | 55.6 µM (inactive) | 75.9 µM (inactive) | 34.4 µM (inactive) | 61.2 µM (inactive) | 89.5 µM (inactive) | 34.2 µM (inactive) | 71.1 µM (inactive) | 71.6 µM (inactive) | 49.9 µM (inactive) | > 100 µM (inactive) | > 96.2 µM (inactive) | > 80.9 µM (inactive) | 31.2 µM (inactive)
3 | COC(=O)/C(=C/c1ccc(OC)cc1)c1cc(OC)c(OC)c(OC)c1 | 4.28 µM (inactive) | 0.527 µM (active) | 8.69 µM (inactive) | 1.2 µM (inactive) | 5.08 µM (inactive) | 0.614 µM (active) | 3.18 µM (inactive) | 0.379 µM (active) | 7.83 µM (inactive) | 3.98 µM (inactive) | 7.05 µM (inactive) | 0.406 µM (active) | 6.01 µM (inactive) | 4.42 µM (inactive) | 10.7 µM (inactive) | 5.62 µM (inactive) | 1.39 µM (inactive) | 0.133 µM (active) | 2.99 µM (inactive) | 1.55 µM (inactive)
4 | C[N+]1([O-])C2CCC1CC(OC(=O)C(CO)c1ccccc1)C2 (stereo not given) | > 100 µM (inactive) | > 100 µM (inactive) | > 100 µM (inactive) | > 100 µM (inactive) | > 81.7 µM (inactive) | > 100 µM (inactive) | > 100 µM (inactive) | > 36.6 µM (inactive) | > 100 µM (inactive) | > 63.2 µM (inactive) | > 100 µM (inactive) | > 100 µM (inactive) | > 100 µM (inactive) | > 100 µM (inactive) | > 100 µM (inactive) | > 100 µM (inactive) | > 100 µM (inactive) | > 100 µM (inactive) | > 100 µM (inactive) | > 100 µM (inactive)
5 | CN(CCCN1CCCC1)CCCN(C)C(=O)Cc1ccc(Cl)c(Cl)c1 | 30 µM (inactive) | 27 µM (inactive) | 24.1 µM (inactive) | 18.3 µM (inactive) | 21 µM (inactive) | 15.7 µM (inactive) | 13.5 µM (inactive) | 11.9 µM (inactive) | 2.55 µM (inactive) | 8.63 µM (inactive) | 14.5 µM (inactive) | 15.7 µM (inactive) | 8.87 µM (inactive) | 12.7 µM (inactive) | 5.68 µM (inactive) | 16.2 µM (inactive) | 6.85 µM (inactive) | 4.22 µM (inactive) | 18.6 µM (inactive) | 16.7 µM (inactive)
